# Key:
# Experiment in all cases: Test D controlled growth environment herbicide test, pre- and postemergence
# Type in all cases: in vivo
# [1] = tested on: Russian thistle (Salsola kali)
# Summary of the method: (§1)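 Species sown in silt loam and sprayed preemergence, or grown in peat-based medium to 2–18 cm (1- to 4-leaf stage) and sprayed postemergence, with compounds in non-phytotoxic solvent plus surfactant. Visual injury scored versus controls after 14–21 d in a controlled environment, 0 (no effect) to 100 (complete control).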
# [2] = tested on: barley, spring (spring barley, Hordeum vulgare)
# Summary of the method: as §1
# [3] = tested on: buckwheat, wild (wild buckwheat, Polygonum convolvulus)
# Summary of the method: as §1
# [4] = tested on: canarygrass (Phalaris minor)
# Summary of the method: as §1
# [5] = tested on: chickweed (common chickweed, Stellaria media)
# Summary of the method: as §1
# [6] = tested on: field violet (Viola arvensis)
# Summary of the method: as §1
# [7] = tested on: galium (catchweed bedstraw, Galium aparine)
# Summary of the method: as §1
# kochia (Kochia scoparia) = tested on: kochia (Kochia scoparia)
# Summary of the method: as §1
# [8] = tested on: oat, wild (wild oat, Avena fatua)
# Summary of the method: as §1
# [9] = tested on: oilseed rape (Brassica napus)
# Summary of the method: as §1
# [10] = tested on: pigweed (Amaranthus retroflexus)
# Summary of the method: as §1
# [11] = tested on: wheat, spring (spring wheat, Triticum aestivum)
# Summary of the method: as §1
# [12] = tested on: wheat, winter (winter wheat, Triticum aestivum)
# Summary of the method: as §1
# [13] = Postemergence, 31 g ai/ha, scale 0 to 100 (0 no effect, 100 complete control)
# [14] = Postemergence, 125 g ai/ha, visual rating on scale 0 (no effect) to 100 (complete control), 14 to 21 d
# [15] = Postemergence, 250 g ai/ha, scale 0 to 100 (0 no effect, 100 complete control)
# [16] = Preemergence, 125 g ai/ha, scale 0 to 100 (0 no effect, 100 complete control)
# [17] = Preemergence, 250 g ai/ha, scale 0 to 100, 0 no effect, 100 complete control
# [18] = postemergence, 62 g ai/ha, scale 0 to 100, 0 no effect, 100 complete control
# [19] = Preemergence, 62 g ai/ha, scale 0 to 100 (0 no effect, 100 complete control)
smiles,measurement,setting,value
CC(=O)Oc1c(C)nn(C)c(=O)c1-c1c(C)sc2ccc(Cl)cc12 [Compound 108],Russian Thistle plant response rating,[1]; [13],65
same,"Plant response rating, Russian Thistle",[1]; [14],75
same,"Plant response rating, Russian Thistle",[1]; [15],90
same,"Plant response rating (scale of 0 to 100), Russian Thistle","[1]; Preemergence, 31 g ai/ha",0
same,"Plant response rating (scale of 0 to 100), Russian Thistle","[1]; Preemergence, 62 g ai/ha",15
same,"Plant response rating, Russian Thistle",[1]; [16],70
same,"Plant response rating, Russian Thistle",[1]; [17],100
same,"Plant response rating, Russian Thistle",[1]; [18],70
same,"Barley, Spring plant response rating",[2]; [13],0
same,"Plant response rating, Barley, Spring",[2]; [14],15
same,"Plant response rating, Barley, Spring",[2]; [15],20
same,"Plant response rating (scale of 0 to 100), Barley, Spring","[2]; Preemergence, 31 g ai/ha",0
same,"Plant response rating, Barley, Spring",[2]; [19],0
same,"Plant response rating, Barley, Spring",[2]; [16],0
same,"Plant response rating, Barley, Spring",[2]; [17],0
same,"Plant response rating, Barley, Spring",[2]; [18],10
same,"Buckwheat, Wild plant response rating",[3]; [13],90
same,"Plant response rating, Buckwheat, Wild",[3]; [14],100
same,"Plant response rating, Buckwheat, Wild",[3]; [15],100
same,"Plant response rating (scale of 0 to 100), Buckwheat, Wild","[3]; Preemergence, 31 g ai/ha",0
same,"Plant response rating, Buckwheat, Wild",[3]; [19],0
same,"Plant response rating, Buckwheat, Wild",[3]; [16],20
same,"Plant response rating, Buckwheat, Wild",[3]; [17],35
same,"Plant response rating, Buckwheat, Wild",[3]; [18],100
same,Canarygrass plant response rating,[4]; [13],40
same,"Plant response rating, Canarygrass",[4]; [14],80
same,"Plant response rating, Canarygrass",[4]; [15],80
same,"Plant response rating (scale of 0 to 100), Canarygrass","[4]; Preemergence, 31 g ai/ha",45
same,"Plant response rating (scale of 0 to 100), Canarygrass","[4]; Preemergence, 62 g ai/ha",80
same,"Plant response rating, Canarygrass",[4]; [16],90
same,"Plant response rating, Canarygrass",[4]; [17],95
same,"Plant response rating, Canarygrass",[4]; [18],50
same,Chickweed plant response rating,[5]; [13],90
same,"Plant response rating, Chickweed",[5]; [14],100
same,"Plant response rating, Chickweed",[5]; [15],100
same,"Plant response rating (scale of 0 to 100), Chickweed","[5]; Preemergence, 31 g ai/ha",100
same,"Plant response rating (scale of 0 to 100), Chickweed","[5]; Preemergence, 62 g ai/ha",100
same,"Plant response rating, Chickweed",[5]; [16],100
same,"Plant response rating, Chickweed",[5]; [17],100
same,"Plant response rating, Chickweed",[5]; [18],100
same,Field Violet plant response rating,[6]; [13],90
same,"Plant response rating, Field Violet",[6]; [14],100
same,"Plant response rating, Field Violet",[6]; [15],100
same,"Plant response rating (scale of 0 to 100), Field Violet","[6]; Preemergence, 31 g ai/ha",90
same,"Plant response rating (scale of 0 to 100), Field Violet","[6]; Preemergence, 62 g ai/ha",100
same,"Plant response rating, Field Violet",[6]; [16],100
same,"Plant response rating, Field Violet",[6]; [17],100
same,"Plant response rating, Field Violet",[6]; [18],95
same,Galium plant response rating,[7]; [13],90
same,"Plant response rating, Galium",[7]; [14],100
same,"Plant response rating, Galium",[7]; [15],100
same,"Plant response rating (scale of 0 to 100), Galium","[7]; Preemergence, 31 g ai/ha",60
same,"Plant response rating (scale of 0 to 100), Galium","[7]; Preemergence, 62 g ai/ha",70
same,"Plant response rating, Galium",[7]; [16],95
same,"Plant response rating, Galium",[7]; [17],100
same,"Plant response rating, Galium",[7]; [18],95
same,Kochia plant response rating,kochia (Kochia scoparia); [13],90
same,"Plant response rating, Kochia",kochia (Kochia scoparia); [14],100
same,"Plant response rating, Kochia",kochia (Kochia scoparia); [15],100
same,"Plant response rating (scale of 0 to 100), Kochia","kochia (Kochia scoparia); Preemergence, 31 g ai/ha",60
same,"Plant response rating (scale of 0 to 100), Kochia","kochia (Kochia scoparia); Preemergence, 62 g ai/ha",95
same,"Plant response rating, Kochia",kochia (Kochia scoparia); [16],80
same,"Plant response rating, Kochia",kochia (Kochia scoparia); [17],100
same,"Plant response rating, Kochia",kochia (Kochia scoparia); [18],100
same,"Oat, Wild plant response rating",[8]; [13],85
same,"Plant response rating, Oat, Wild",[8]; [14],100
same,"Plant response rating, Oat, Wild",[8]; [15],100
same,"Plant response rating (scale of 0 to 100), Oat, Wild","[8]; Preemergence, 31 g ai/ha",80
same,"Plant response rating (scale of 0 to 100), Oat, Wild","[8]; Preemergence, 62 g ai/ha",80
same,"Plant response rating, Oat, Wild",[8]; [16],80
same,"Plant response rating, Oat, Wild",[8]; [17],95
same,"Plant response rating, Oat, Wild",[8]; [18],95
same,Oilseed Rape plant response rating,[9]; [13],45
same,"Plant response rating, Oilseed Rape",[9]; [14],75
same,"Plant response rating, Oilseed Rape",[9]; [15],100
same,"Plant response rating (scale of 0 to 100), Oilseed Rape","[9]; Preemergence, 31 g ai/ha",20
same,"Plant response rating (scale of 0 to 100), Oilseed Rape","[9]; Preemergence, 62 g ai/ha",45
same,"Plant response rating, Oilseed Rape",[9]; [16],75
same,"Plant response rating, Oilseed Rape",[9]; [17],40
same,"Plant response rating, Oilseed Rape",[9]; [18],70
same,Pigweed plant response rating,[10]; [13],95
same,"Plant response rating, Pigweed",[10]; [14],100
same,"Plant response rating, Pigweed",[10]; [15],100
same,"Plant response rating (scale of 0 to 100), Pigweed","[10]; Preemergence, 31 g ai/ha",100
same,"Plant response rating (scale of 0 to 100), Pigweed","[10]; Preemergence, 62 g ai/ha",100
same,"Plant response rating, Pigweed",[10]; [16],100
same,"Plant response rating, Pigweed",[10]; [17],100
same,"Plant response rating, Pigweed",[10]; [18],100
same,"Wheat, Spring plant response rating",[11]; [13],15
same,"Plant response rating, Wheat, Spring",[11]; [14],20
same,"Plant response rating, Wheat, Spring",[11]; [15],30
same,"Plant response rating (scale of 0 to 100), Wheat, Spring","[11]; Preemergence, 31 g ai/ha",0
same,"Plant response rating (scale of 0 to 100), Wheat, Spring","[11]; Preemergence, 62 g ai/ha",20
same,"Plant response rating, Wheat, Spring",[11]; [16],25
same,"Plant response rating, Wheat, Spring",[11]; [17],40
same,"Plant response rating, Wheat, Spring",[11]; [18],20
same,"Wheat, Winter plant response rating",[12]; [13],10
same,"Plant response rating, Wheat, Winter",[12]; [14],20
same,"Plant response rating, Wheat, Winter",[12]; [15],20
same,"Plant response rating (scale of 0 to 100), Wheat, Winter","[12]; Preemergence, 31 g ai/ha",0
same,"Plant response rating (scale of 0 to 100), Wheat, Winter","[12]; Preemergence, 62 g ai/ha",0
same,"Plant response rating, Wheat, Winter",[12]; [16],10
same,"Plant response rating, Wheat, Winter",[12]; [17],30
same,"Plant response rating, Wheat, Winter",[12]; [18],15

# Reference: patent publication US10597388B2, “Pyridazinone herbicides” (FMC CORPORATION, priority 2014, dated 2020)
